From article PMC9013686, “Inter-individual variation in chlorpyrifos toxicokinetics characterized by physiologically based kinetic (PBK) and Monte Carlo simulation comparing human liver microsome and Supersome™ cytochromes P450 (CYP)-specific kinetic data as model input” (Archives of Toxicology, 2022)

Key:
CYP3A4 in pooled HLMs = target: T1, CYP3A4 in pooled HLMs (Homo sapiens, UniProt P08684); assay: Pooled HLM incubation with CYP3A4 probe substrate (ISEF determination); format: in vitro ADME; conditions: 6β-hydroxytestosterone formation
T1 construct: the native CYPs present in HLM; tissue Corning (Amsterdam, The Netherlands); host or cells: pooled human liver microsomes, 150 donors, mixed gender
Procedure: (§1) To normalize for differences in intrinsic CYP activity between Supersome™ and pooled HLMs and enable scaling of the activities to the in vivo situation, CYP-specific ISEF values need to be established. […] The incubation method was similar as used for the CPF kinetic incubation assay described above, except that certain incubation conditions were replaced by the conditions listed in Table 1. The samples obtained were analyzed by UPLC-PDA for acetaminophen, 4-hydroxymephenytoin, and 6β-hydroxytestosterone formation catalyzed by 1A2, 2C19 and 3A4, or LC–MS/MS for (±)-hydroxybupropion formation catalyzed by 2B6.
As mentioned before, the in vitro apparent kinetic parameters (Vmax and Km) for pathway 1 and pathway 2 in the HLM-based approach, and pathway 3 in both approaches were all obtained directly from reported studies using pooled HLMs (Buratti et al. [2003]; Sams et al. [2004]; Zhao et al. [2019]). Therefore, no extra calculations were required to define these parameters. […] It should be noted that the kinetic parameters for pathway 4 used in the two approaches were calculated as mean of the kinetic parameters (Vmax and Km) obtained using 25 individual HP samples (with correction for total protein concentration of each plasma sample).

CYP3A4 = CYP3A4 (Homo sapiens, UniProt P08684); assay: Supersome CYP3A4 kinetic incubations; format: in vitro ADME; set-up: purchased Corning (Amsterdam, The Netherlands); host or cells: baculovirus-transfected insect cells
Procedure: The final incubations were carried out in 50 mM Tris–HCl (pH 7.4) containing 5 mM MgCl2, 1 mM EDTA (as an A-esterase PON1 inhibitor) (Bizoń and Milnerowicz [2018]), 50 µM iso-OMPA (as a B-esterases inhibitor) (Lane et al. [2006]), Supersome™ isoform (at final concentration of 0.005 nmol CYP/ml for 1A2, 0.001 nmol CYP/ml for 2B6, 0.01 nmol CYP/ml for 2C19, and 0.01 nmol CYP/ml for 3A4) and CPF at different final concentrations (0.05, 0.1, 0.25, 0.5, 1, 5 and 10 µM for 1A2, 0.05, 0.1, 0.25, 0.5, 1, 5 10 and 25 µM for 2B6, 1, 2.5, 5, 10, 25 and 50 µM for 2C19, and 0.5, 1, 2.5, 5, 10, 25 and 50 µM for 3A4), which were added from 100 times concentrated stock solutions in ACN. After 1 min preincubation in a 37 °C water bath, 5 µl NADPH (final concentration 1 mM) was added to the incubation system. Control incubations were performed by replacing NADPH with the same amount of Tris–HCl (pH 7.4). The total volume of the incubation mixtures was 200 µl. The incubations lasted for 2 min at 37 °C and were terminated by addition of 50 µl ice cold ACN and subsquently put on ice. After that, samples were centrifuged at 16,000 g (4 ℃) for 5 min and supernatants of samples were separated into two equal portions for Ultra-Performance Liquid Chromatography-Photodiode Array (UPLC-PDA) and Liquid Chromatography Mass Spectrometry (LC–MS/MS) analysis, respectively.
as §1
As mentioned before, the in vitro apparent kinetic parameters (Vmax and Km) for pathway 1 and pathway 2 in the HLM-based approach, and pathway 3 in both approaches were all obtained directly from reported studies using pooled HLMs (Buratti et al. [2003]; Sams et al. [2004]; Zhao et al. [2019]). Therefore, no extra calculations were required to define these parameters. The kinetic parameters for the ISEF calculation, pathway 1 and 2 in the Supersome™-based approach, and pathway 4 in both approaches (25 individuals) were all obtained by fitting the experimental data to the Michaelis–Menten model using GraphPad (GraphPad Prism 5.0 software, San Diego, CA, USA). It should be noted that the kinetic parameters for pathway 4 used in the two approaches were calculated as mean of the kinetic parameters (Vmax and Km) obtained using 25 individual HP samples (with correction for total protein concentration of each plasma sample).
The in vivo Kmi values were assumed to be equal to the apparent Kmi(app) values (µM) obtained in the in vitro incubations, while the in vivo Vmaxi for each CYP isoform was derived from their corresponding apparent CYP isoform Vmaxi(app) (pmol/min/pmolCYP) using Eq. 3:3 Vmaxi=Vmaxiapp×CYPiabundance×ISEF×60×MPL×1000×VL/1,000,000,

CYP3A4, sequence (P08684 2-503 limits assumed): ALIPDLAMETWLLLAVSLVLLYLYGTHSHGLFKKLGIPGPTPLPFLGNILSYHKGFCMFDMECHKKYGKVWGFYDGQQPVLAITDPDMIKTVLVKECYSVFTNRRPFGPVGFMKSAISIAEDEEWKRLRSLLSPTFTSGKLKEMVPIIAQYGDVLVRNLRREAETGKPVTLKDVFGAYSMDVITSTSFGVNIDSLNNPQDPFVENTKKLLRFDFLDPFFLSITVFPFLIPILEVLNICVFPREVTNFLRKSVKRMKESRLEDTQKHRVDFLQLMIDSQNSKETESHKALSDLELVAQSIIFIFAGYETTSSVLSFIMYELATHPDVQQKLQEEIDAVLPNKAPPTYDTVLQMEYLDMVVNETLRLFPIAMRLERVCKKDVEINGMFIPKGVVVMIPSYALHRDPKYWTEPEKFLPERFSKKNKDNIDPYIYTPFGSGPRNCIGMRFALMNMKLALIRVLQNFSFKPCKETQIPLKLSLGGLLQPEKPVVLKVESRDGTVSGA
T1 sequence (P08684 2-503): as the sequence (P08684 2-503 limits assumed) above

C[C@]12CC[C@H]3[C@@H](CCC4=CC(=O)CC[C@@]43C)[C@@H]1CC[C@@H]2O [Testosterone, testosterone, reference compound]
Vmax (pooled HLMs) (CYP3A4 in pooled HLMs): 17.29 nmol/min/mg microsomal protein | Vmax (Supersome) (CYP3A4; 6β-hydroxytestosterone formation, Supersome CYP3A4): 1179 pmol/min/pmol CYP | ISEF (CYP3A4; CYP3A4, calculated on the basis of Eq. 4 from probe substrate Vmax in pooled HLMs and Supersome): 0.11
